In ChEMBL document CHEMBL5523720, “Identification of novel GSPT1 degraders by virtual screening and bioassay” (Eur J Med Chem, 2024):
Values belong to the compound of their own block, whether it stands above or below them. Active and inactive are the calls of the source. The calls are words filed in the database; no cut-off is given here.

Legend:
U-266 = assay: Antiproliferative activity against human U-266 cells incubated for 48 hrs by MTS assay; assay type: functional, cell-based; conditions: U-266, 48 h
U-937 [1] = assay: Antiproliferative activity against human U-937 cells incubated for 48 hrs by MTS assay; assay type: functional, cell-based; conditions: U-937, 48 h
K562 = assay: Antiproliferative activity against human K562 cells incubated for 48 hrs by MTS assay; assay type: functional, cell-based; conditions: K562, 48 h
OCI-AML2 [2] = assay: Antiproliferative activity against human OCI-AML2 cells incubated for 48 hrs by MTS assay; assay type: functional, cell-based; conditions: OCI-AML2, 48 h
[3] = molecular target: Eukaryotic peptide chain release factor GTP-binding subunit ERF3A (Homo sapiens) (UniProt P15170); assay: Induction of GSPT1 degradation in human OCI-AML2 cells at 1 uM incubated for 8 hrs by Western blotting analysis; assay type: cell-based
Chain of Eukaryotic peptide chain release factor GTP-binding subunit ERF3A (Homo sapiens) (P15170 whole entry): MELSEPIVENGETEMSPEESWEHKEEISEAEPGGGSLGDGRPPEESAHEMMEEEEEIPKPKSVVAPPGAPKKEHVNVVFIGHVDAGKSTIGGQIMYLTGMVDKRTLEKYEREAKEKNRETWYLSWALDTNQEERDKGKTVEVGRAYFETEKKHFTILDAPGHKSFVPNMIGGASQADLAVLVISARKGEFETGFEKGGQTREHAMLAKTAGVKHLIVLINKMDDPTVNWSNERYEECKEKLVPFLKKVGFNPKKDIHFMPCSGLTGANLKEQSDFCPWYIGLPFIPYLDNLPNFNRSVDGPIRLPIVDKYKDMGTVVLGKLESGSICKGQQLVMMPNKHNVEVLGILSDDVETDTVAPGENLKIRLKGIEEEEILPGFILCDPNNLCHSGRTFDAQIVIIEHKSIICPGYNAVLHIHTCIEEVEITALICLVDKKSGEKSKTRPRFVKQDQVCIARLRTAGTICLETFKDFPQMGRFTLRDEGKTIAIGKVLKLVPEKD

[4] = molecular target: Eukaryotic peptide chain release factor GTP-binding subunit ERF3A (Homo sapiens) (UniProt P15170); assay: Induction of GSPT1 degradation in human U-937 cells at 1 uM incubated for 8 hrs by Western blotting analysis; assay type: cell-based
[5] = molecular target: T1, Protein cereblon/Eukaryotic peptide chain release factor GTP-binding subunit ERF3A (Homo sapiens) (UniProt Q96SW2+P15170); assay: Induction of CRBN to GSPT1 protein-protein interaction in human U-937 cells at 1 uM pretreated with MG132 for 1 hr followed by compound addition and measured after 8 hrs by immunoprecipitation assay; assay type: cell-based; conditions: filed as activator
T1 sequence (P15170 whole entry, looked up): as the sequence (P15170 whole entry) above
T1 sequence (Q96SW2 whole entry, looked up): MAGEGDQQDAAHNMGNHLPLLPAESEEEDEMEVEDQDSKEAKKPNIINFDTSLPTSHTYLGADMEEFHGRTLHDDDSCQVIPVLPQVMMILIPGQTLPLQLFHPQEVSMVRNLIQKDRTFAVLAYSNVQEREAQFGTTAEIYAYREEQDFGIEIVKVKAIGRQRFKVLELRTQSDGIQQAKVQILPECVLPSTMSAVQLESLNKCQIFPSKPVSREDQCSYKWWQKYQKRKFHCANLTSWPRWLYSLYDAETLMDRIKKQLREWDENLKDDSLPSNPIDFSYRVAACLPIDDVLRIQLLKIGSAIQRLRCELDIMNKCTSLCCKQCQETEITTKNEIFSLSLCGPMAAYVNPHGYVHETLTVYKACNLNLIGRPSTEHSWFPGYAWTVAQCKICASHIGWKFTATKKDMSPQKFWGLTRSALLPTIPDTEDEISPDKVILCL

U-937 [6] = assay: Downregulation of GSPT1 in human U-937 cells at high concentration incubated for 8 hrs by Western blotting analysis; assay type: functional, cell-based
U-937 [7] = assay: Downregulation of IKZF1 in human U-937 cells at high concentration incubated for 8 hrs by Western blotting analysis; assay type: functional, cell-based
U-937 [8] = assay: Downregulation of CK1alpha in human U-937 cells at high concentration incubated for 8 hrs by Western blotting analysis; assay type: functional, cell-based
OCI-AML2 [9] = assay: Downregulation of GSPT1 in human OCI-AML2 cells at high concentration incubated for 8 hrs by Western blotting analysis; assay type: functional, cell-based
OCI-AML2 [10] = assay: Downregulation of IKZF1 in human OCI-AML2 cells at high concentration incubated for 8 hrs by Western blotting analysis; assay type: functional, cell-based
OCI-AML2 [11] = assay: Downregulation of CK1alpha in human OCI-AML2 cells at high concentration incubated for 8 hrs by Western blotting analysis; assay type: functional, cell-based
[12] = molecular target: Eukaryotic peptide chain release factor GTP-binding subunit ERF3A (Homo sapiens) (UniProt P15170); assay: Induction of GSPT1 degradation in human U-937 cells with CHX pretreatment by Western blotting analysis; assay type: cell-based; conditions: dose 20-40 µM
[13] = molecular target: Eukaryotic peptide chain release factor GTP-binding subunit ERF3A (Homo sapiens) (UniProt P15170); assay: Induction of GSPT1 degradation in human U-937 cells at 20 to 40 uM pretreated with MG132 for 1 hr followed by compound addition and measured after 8 hrs by Western blotting analysis; assay type: cell-based; conditions: dose 20-40 µM
[14] = molecular target: Eukaryotic peptide chain release factor GTP-binding subunit ERF3A (Homo sapiens) (UniProt P15170); assay: Induction of GSPT1 degradation in human U-937 cells at 20 to 40 uM pretreated with MLN4924 followed by compound addition and measured after 8 hrs by Western blotting analysis; assay type: cell-based; conditions: dose 20-40 µM
[15] = molecular target: Eukaryotic peptide chain release factor GTP-binding subunit ERF3A (Homo sapiens) (UniProt P15170); assay: Induction of GSPT1 degradation in human OCI-AML2 cells at 20 to 40 uM pretreated with MLN4924 followed by compound addition and measured after 8 hrs by Western blotting analysis; assay type: cell-based; conditions: dose 20-40 µM
[16] = molecular target: Eukaryotic peptide chain release factor GTP-binding subunit ERF3A (Homo sapiens) (UniProt P15170); assay: Induction of GSPT1 degradation in human HEK293FT cells at 20 to 40 uM pretreated with MLN4924 for 1 hr followed by compound addition and measured after 8 hrs by Western blotting analysis; assay type: cell-based; conditions: dose 20-40 µM
[17] = molecular target: Protein cereblon (Homo sapiens) (UniProt Q96SW2); assay: Binding affinity to recombinant CRBN (unknown origin) by SPR assay
Chain of Protein cereblon (Homo sapiens) (Q96SW2 whole entry): as the sequence (Q96SW2 whole entry, looked up) above

[18] = molecular target: T1, Protein cereblon/Eukaryotic peptide chain release factor GTP-binding subunit ERF3A (Homo sapiens); assay: Induction of CRBN to GSPT1 protein-protein interaction in human U-937 cells at 20 uM pretreated with MG132 for 1 hr followed by compound addition and measured after 8 hrs by immunoprecipitation assay; assay type: cell-based; conditions: filed as activator
[19] = molecular target: T1, Protein cereblon/Eukaryotic peptide chain release factor GTP-binding subunit ERF3A (Homo sapiens); assay: Binding affinity to CRBN/GSPT1 in human U-937 cells assessed as increase in protein stabilization incubated for 6 hrs by CETSA; assay type: cell-based; conditions: filed as activator
U-937 [20] = assay: Antiproliferative activity against CRBN knockdown human U-937 cells incubated for 48 hrs by MTS assay; assay type: functional, cell-based
OCI-AML2 [21] = assay: Antiproliferative activity against GSPT1 knockout human OCI-AML2 cells incubated for 48 hrs by MTS assay; assay type: functional, cell-based
U-937 [22] = assay: Induction of cell cycle arrest in human U-937 cells assessed as increase in G1 phase cells at 5 to 20 uM incubated for 24 hrs by propidium iodide staining based flow cytometry analysis; assay type: functional; conditions: dose 5-20 µM
U-937 [23] = assay: Induction of cell cycle arrest in human U-937 cells assessed as decrease in M phase cells at 5 to 20 uM incubated for 24 hrs by propidium iodide staining based flow cytometry analysis; assay type: functional; conditions: dose 5-20 µM
OCI-AML2 [24] = assay: Induction of cell cycle arrest in human OCI-AML2 cells assessed as increase in G1 phase cells at 5 to 20 uM incubated for 24 hrs by propidium iodide staining based flow cytometry analysis; assay type: functional; conditions: dose 5-20 µM
OCI-AML2 [25] = assay: Induction of cell cycle arrest in human OCI-AML2 cells assessed as decrease in M phase cells at 5 to 20 uM incubated for 24 hrs by propidium iodide staining based flow cytometry analysis; assay type: functional; conditions: dose 5-20 µM
U-937 [26] = assay: Induction of apoptosis in human U-937 cells assessed as increase in number of apoptotic cells at 5 to 20 uM incubated for 48 hrs by Annexin V-FITC/PI staining based flow cytometry analysis; assay type: functional, cell-based; conditions: dose 5-20 µM
OCI-AML2 [27] = assay: Induction of apoptosis in human OCI-AML2 cells assessed as increase in number of apoptotic cells at 5 to 20 uM incubated for 48 hrs by Annexin V-FITC/PI staining based flow cytometry analysis; assay type: functional, cell-based; conditions: dose 5-20 µM
U-937 [28] = assay: Upregulation of caspase 9 level in human U-937 cells at 5 to 20 uM incubated for 24 hrs by Western blotting assay; assay type: functional, cell-based; conditions: dose 5-20 µM
U-937 [29] = assay: Upregulation of PARP cleavage in human U-937 cells at 5 to 20 uM incubated for 24 hrs by Western blotting assay; assay type: functional, cell-based; conditions: dose 5-20 µM
U-937 [30] = assay: Upregulation of p21 level in human U-937 cells at 5 to 20 uM incubated for 24 hrs by Western blotting assay; assay type: functional, cell-based; conditions: dose 5-20 µM
U-937 [31] = assay: Downregulation of c-Myc level in human U-937 cells at 5 to 20 uM incubated for 24 hrs by Western blotting assay; assay type: functional, cell-based; conditions: dose 5-20 µM
OCI-AML2 [32] = assay: Upregulation of caspase 9 level in human OCI-AML2 cells at 5 to 20 uM incubated for 24 hrs by Western blotting assay; assay type: functional, cell-based; conditions: dose 5-20 µM
OCI-AML2 [33] = assay: Upregulation of PARP cleavage in human OCI-AML2 cells at 5 to 20 uM incubated for 24 hrs by Western blotting assay; assay type: functional, cell-based; conditions: dose 5-20 µM
OCI-AML2 [34] = assay: Upregulation of p21 level in human OCI-AML2 cells at 5 to 20 uM incubated for 24 hrs by Western blotting assay; assay type: functional, cell-based; conditions: dose 5-20 µM
OCI-AML2 [35] = assay: Downregulation of c-Myc level in human OCI-AML2 cells at 5 to 20 uM incubated for 24 hrs by Western blotting assay; assay type: functional, cell-based; conditions: dose 5-20 µM
[36] = molecular target: Eukaryotic peptide chain release factor GTP-binding subunit ERF3A (Homo sapiens) (UniProt P15170); assay: Induction of GSPT1 degradation in human OCI-AML2 cells at 10 uM incubated for 8 hrs by Western blotting analysis; assay type: cell-based
[37] = molecular target: Eukaryotic peptide chain release factor GTP-binding subunit ERF3A (Homo sapiens) (UniProt P15170); assay: Induction of GSPT1 degradation in human U-937 cells at 10 uM incubated for 8 hrs by Western blotting analysis; assay type: cell-based
U-937 [38] = assay: Downregulation of GSPT1 in human U-937 cells incubated for 8 hrs by Western blotting analysis; assay type: functional, cell-based; conditions: dose 5-40 µM
U-937 [39] = assay: Downregulation of IKZF1 in human U-937 cells incubated for 8 hrs by Western blotting analysis; assay type: functional, cell-based; conditions: dose 5-40 µM
U-937 [40] = assay: Downregulation of CK1alpha in human U-937 cells incubated for 8 hrs by Western blotting analysis; assay type: functional, cell-based; conditions: dose 5-40 µM
OCI-AML2 [41] = assay: Downregulation of GSPT1 in human OCI-AML2 cells incubated for 8 hrs by Western blotting analysis; assay type: functional, cell-based; conditions: dose 5-40 µM
OCI-AML2 [42] = assay: Downregulation of IKZF1 in human OCI-AML2 cells incubated for 8 hrs by Western blotting analysis; assay type: functional, cell-based; conditions: dose 5-40 µM
OCI-AML2 [43] = assay: Downregulation of CK1alpha in human OCI-AML2 cells incubated for 8 hrs by Western blotting analysis; assay type: functional, cell-based; conditions: dose 5-40 µM

IC50 (U-937 [1]): > 40 µM
IC50 (K562): > 40 µM
IC50 (OCI-AML2 [2]): > 40 µM
Compound: Cc1nc2ccccc2cc1C(=O)N/N=C/c1cccc(Cl)c1
IC50 (U-266): > 40 µM

IC50 (U-937 [1]): > 40 µM
IC50 (K562): > 40 µM
IC50 (OCI-AML2 [2]): > 40 µM
Compound: Cc1nc2ccccc2cc1C(=O)N/N=C/c1cccc([N+](=O)[O-])c1
IC50 (U-266): > 40 µM

IC50 (U-937 [1]): > 40 µM
IC50 (K562): > 40 µM
IC50 (OCI-AML2 [2]): > 40 µM
Compound: Cc1nc2ccccc2cc1C(=O)N/N=C/c1ccccn1
IC50 (U-266): > 40 µM

IC50 (U-937 [1]): 22.6 µM
IC50 (K562): 19.4 µM
IC50 (OCI-AML2 [2]): 17.2 µM
Activity [36]: Active
Activity [37]: Active
Compound: Cc1nc2c(C)cccc2cc1C(=O)N/N=C/c1cccc(O)c1
IC50 (U-266): 17.7 µM
Activity (U-937 [38]): Dose-Dependent Effect
Activity (U-937 [39]): Dose-Dependent Effect
Activity (U-937 [40]): Dose-Dependent Effect
Activity (OCI-AML2 [41]): Dose-Dependent Effect
Activity (OCI-AML2 [42]): Dose-Dependent Effect
Activity (OCI-AML2 [43]): Dose-Dependent Effect

IC50 (U-937 [1]): > 40 µM
IC50 (K562): > 40 µM
IC50 (OCI-AML2 [2]): > 40 µM
Compound: Cc1ccc2nc(C)c(C(=O)N/N=C/c3cccnc3)cc2c1
IC50 (U-266): > 40 µM

More lines, now with the values behind:

Compound: O=C1CCC(N2Cc3cc(CNC(=O)C(F)(F)c4ccc(Cl)cc4)ccc3C2=O)C(=O)N1 (configuration not stated)
Activity [3]: Active
IC50 (U-266): 0.04 µM
IC50 (U-937 [1]): < 0.032 µM
IC50 (K562): > 40 µM
IC50 (OCI-AML2 [2]): 0.01 µM
Activity [4]: Active
Activity [5]: Active

Compound: Cc1nc2c(C)cccc2cc1C(=O)N/N=C/c1ccccc1O
IC50 (U-266): 3.8 µM
IC50 (U-937 [1]): 4.49 µM
IC50 (K562): 16.7 µM
IC50 (OCI-AML2 [2]): 2.64 µM
Activity (U-937 [6]): Active
Activity (U-937 [7]): Active
Activity (U-937 [8]): Active
Activity (OCI-AML2 [9]): Active
Activity (OCI-AML2 [10]): Active
Activity (OCI-AML2 [11]): Active
Activity [12]: Dose-Dependent Effect
Activity [13]: inactive
Activity [14]: inactive
Activity [15]: inactive
Activity [16]: inactive
Activity [17]: Active
Activity [18]: Active
Activity [19]: Active
Activity (U-937 [20]): inactive
Activity (OCI-AML2 [21]): inactive
Activity (U-937 [22]): Active
Activity (U-937 [23]): Active
Activity (OCI-AML2 [24]): Active
Activity (OCI-AML2 [25]): Active
Activity (U-937 [26]): Active
Activity (OCI-AML2 [27]): Active
Activity (U-937 [28]): Active
Activity (U-937 [29]): Active
Activity (U-937 [30]): Active
Activity (U-937 [31]): Active
Activity (OCI-AML2 [32]): Active
Activity (OCI-AML2 [33]): Active
Activity (OCI-AML2 [34]): Active
Activity (OCI-AML2 [35]): Active

Compound: Cc1nc2c(C)cccc2cc1C(=O)N/N=C/c1cccc([N+](=O)[O-])c1
IC50 (U-266): 7.13 µM
IC50 (U-937 [1]): 9.9 µM
IC50 (K562): 12.8 µM
IC50 (OCI-AML2 [2]): 2.68 µM

Compound: Cc1nc2c(C)cccc2cc1C(=O)N/N=C/c1cccnc1
IC50 (U-266): 26.6 µM
IC50 (U-937 [1]): > 40 µM
IC50 (K562): > 40 µM
IC50 (OCI-AML2 [2]): 15.6 µM
